The values that follow come from PMC7893776, “Selecting an anti-malarial clinical candidate from two potent dihydroisoquinolones” (Malaria Journal, 2021).

The term pKa denotes the negative logarithm of the acid dissociation constant. A higher pKa goes with a group that holds its proton tightly.

Read-outs that look alike come from different tables or passages of the source. Marks after values point to notes of the source that are not given here.

The nature of one data set: Kinetic solubility. Format: physicochemical. As for the experimental part: Solubility assays were carried out on a Biomek FX lab automation workstation (Beckman Coulter, Inc., Fullerton, CA) using µSOL Evolution software (pION Inc., Woburn, MA). Compound stock (10 mM in DMSO, 10 µL) was added to 1-propanol (190 µL) to make a reference stock plate. Reference stock solution (5 µL) was mixed with 1-propanol (70 µL) and citrate phosphate buffered saline (75 µL) to make the reference plate and the UV spectrum (250 nm–500 nm) of the […] was read. Test compound stock (10 mM in DMSO, 6 µL) was added to buffer (594 µL) in a 96-well storage plate and mixed. The storage plate was sealed and incubated at room temperature for 18 h. The suspension was then filtered through a 96-well filter plate (pION Inc., Woburn, MA). Filtrate (75 µL) was mixed with 1-propanol (75 µL) to make the sample plate, and the UV spectrum (250 nm – 500 nm) of the sample plate was read. Calculation was carried out by µSOL Evolution software based on the […] (area under curve) of UV spectrum of the sample plate and the reference plate. All compounds were tested in triplicate.

Data set [1] in a line: pKa by potentiometric titration. Format: physicochemical. The protocol:
Octanol/pH 7.4 buffer partitioning experiments were conducted using a shake flask method, and pKa was assessed by potentiometric titration. Both methods have been described previously.

On the set-up of data set [2]: method as in PMID 31898492. The conditions noted are these: human whole blood; cited from earlier work.
For data set [3], the system named is recombinant human CYP1A1, 1A2, 1B1, 2B6, 2C8, 2C9, 2C19, 2D6, 3A4. Put plainly: Recombinant human cytochrome P450 (rhCYP) metabolism. Format: in vitro ADME. The protocol: SJ733 was first pre-incubated with Bactosomes™ (Cypex Ltd, final P450 concentration: CYP1A1 25 pmol/mL, CYP1A2 100 pmol/mL,CYP1B1 100 pmol/mL, CYP2B6 100 pmol/mL, CYP2C8 50 pmol/mL, CYP2C9, 25 pmol/mL, CYP2C19 100 pmol/mL, CYP2D6 50 pmol/mL and CYP3A4 25 pmol/mL, 0.1 M phosphate buffer pH 7.4) at 37 °C prior to the addition of NADPH (final concentration 1 mM) to initiate the reaction with a final incubation volume of 50 μL. Incubations were also performed using control Bactosomes™ (no P450 enzymes present) to reveal any non-enzymatic degradation. Control compounds known to be metabolized specifically by each P450 isoform were included individually. Test articles and controls were incubated with each isoform for 0, 5, 15, 30, and 45 min. The reactions were stopped by transferring 20 μL of the reaction mixture to 60 μL methanol at the appropriate timepoints.

A short description of data set [4]: Storage stability of samples at −80 °C. Conditions: stored at − 80 °C for more than 14 days, ± 15% variance. The source says: All plasma samples that were shipped elsewhere from the testing facility were all analyzed within the validated stability time period.
On the set-up of data set [5]: method as in PMID 31898492. The conditions noted are these: octanol/pH 7.4 buffer, averaged from high and low concentration partition samples; cited from earlier work.
On the set-up of data set [6]: method as in earlier work. Conditions: 6 h, cited from earlier work.

As for `N#Cc1cc(NC(=O)C2c3ccccc3C(=O)N(CC(F)(F)F)C2c2cn[nH]c2)ccc1F` (racemic) [(r)-SJ311], the Kinetic solubility in the data set “Kinetic solubility” (pH 3) stood at 80 ± 7 µM; in the data set “Kinetic solubility” (pH 5) it was 80 ± 7 µM; in “Kinetic solubility” (pH 7.4) it was 66 ± 7 µM. The pKa in data set [1] was 11.1 ± 0.3.

Regarding `N#Cc1cc(NC(=O)C2c3ccccc3C(=O)N(CC(F)(F)F)C2c2cccnc2)ccc1F` (racemic) [(r)-SJ733], in data set [2], the B/P ratio is given as 0.72 ± 0.02^b. Besides, the figures for the Kinetic solubility in the data set “Kinetic solubility” (pH 3), in the data set “Kinetic solubility” (pH 5) and in the data set “Kinetic solubility” (pH 7.4) were 84 ± 3 µM, 84 ± 3 µM and 65 ± 4 µM, respectively.

With `N#Cc1cc(NC(=O)[C@H]2c3ccccc3C(=O)N(CC(F)(F)F)[C@@H]2c2cccnc2)ccc1F` (racemic) [SJ733], the formation of metabolites result in data set [3] (incubation with CYP1A1, 1A2, 1B1, 2B6, 2C9, or 2C19 recombinant enzymes) was “no detectable formation of metabolites”; in data set [3] (incubations with CYP2C8, 2D6, and 3A4 recombinant enzymes), “Metabolite formation was only observed”. Besides, the storage stability result in data set [4] was “stable”.

For `N#Cc1cc(NC(=O)[C@H]2c3ccccc3C(=O)N(CC(F)(F)F)[C@@H]2c2cccnc2)ccc1F` [(+)-SJ733], the “LogD (7.4) Shake flask” value in data set [5] was 3.90 ± 0.01^a,b. The Solubility in data set [6] (FaSSIF-V2 pH 6.5, 37°C) is 216^b µM; in data set [6] (FeSSIF-V2 pH 5.8, 37°C), 254^b µM; in data set [6] (Phosphate buffer pH 7.4, 37°C) it was 246^b µM.

In the case of `N#Cc1cc(NC(=O)[C@H]2c3ccccc3C(=O)N(CC(F)(F)F)[C@@H]2c2cn[nH]c2)ccc1F` [SJ311], the storage stability result in data set [4] is listed as “stable”.
